# US20160175318A1, “COMPOSITIONS COMPRISING ANTIBACTERIAL AGENT AND TAZOBACTAM” (WOCKHARDT LIMITED, priority 2013, published 2016)
# Like-named read-outs stand apart in the source and are kept apart here.
# Legend:
# Assay type in all cases: cell-based
# E. coli B-89 [1] = experiment: Quantitative drug diffusion assay (disc, zone of inhibition, CLSI); set-up: key to Interpretation of zone as per CLSI recommendations: R: Resistant; I: Intermediate; S: Sensitive (Interpretation as per CLSI recommendations, 2010)
# Source text: (§1) Activity of cefepime in combination with tazobactam and various penicillins in combination with respective ESBL inhibitors was also investigated against highly resistant ESBL strains in quantitative drug diffusion assay performed as per CLSI recommendations (Clinical and Laboratory Standards Institute (CLSI), performance Standards for Antimicrobial Susceptibility Testing, 20th Informational Supplement, M 100-S20, Volume 30, No. 1, 2010).
# (§2) In a typical study, overnight grown bacterial cultures after appropriate dilution were seed inoculated in the molten, cooled agar media and plates poured. Antibiotics containing 6 mm diameter discs were place on the top of the agar surface. Zone of inhibition based observation was performed after 16-18 h of incubation at 35±2° C. in ambient air. The overall procedure was performed as per CLSI recommendations (Table 5 and 6). These assays are routinely used in determining possibility of treating a particular infection using antibiotic and/or their combinations. For example, in case of treating an infection caused by E. coli (M138) using Augmentin® [commercially available combination: Amoxicillin (500 mg)+Clavulanic acid (125 mg)], the zone inhibition values need to be in the sensitive (S) range.
# E. coli M-138 = experiment: as above; set-up: key to Interpretation of zone as per CLSI recommendations: R: Resistant; I: Intermediate; S: Sensitive (Interpretation as per CLSI recommendations, 2010)
# Source text: as §1, §2
# E. coli B-123 = experiment: as above; set-up: key to Interpretation of zone as per CLSI recommendations: R: Resistant; I: Intermediate; S: Sensitive (Interpretation as per CLSI recommendations, 2010)
# Source text: as §1, §2
# E. coli S-112 = experiment: as above; set-up: key to Interpretation of zone as per CLSI recommendations: R: Resistant; I: Intermediate; S: Sensitive (Interpretation as per CLSI recommendations, 2010)
# Source text: as §1, §2
# E. coli 7MP [2] = experiment: as above; set-up: key to Interpretation of zone as per CLSI recommendations: R: Resistant; I: Intermediate; S: Sensitive (Interpretation as per CLSI recommendations, 2010)
# Source text: as §1, §2
# E. coli M50 [3] = experiment: as above; set-up: key to Interpretation of zone as per CLSI recommendations: R: Resistant; I: Intermediate; S: Sensitive (Interpretation as per CLSI recommendations, 2010)
# Source text: as §1, §2
# E. coli B-89 [4] = experiment: MIC by agar dilution (CLSI) against highly resistant ESBL strain; conditions: E. coli B-89
# Experimental: (§3) The results on activity of cefepime and other cephalosporin antibacterial agents in combination with tazobactam against highly resistant ESBL strains are given Table 1. In a typical study, overnight grown bacterial cultures were diluted appropriately and inoculated on the agar media containing doubling dilutions of the antibiotic. Observation for growth or no growth was performed after 16-20 h of incubation at 35±2° C. in ambient air. The overall procedure was performed as per Clinical and Laboratory Standards Institute (CLSI) recommendations. This experimental was followed for Examples 2-4 and 6 below (Table 2-4 and 7).
# E. coli 7MP [5] = experiment: as above; conditions: E. coli 7MP
# Experimental: as §3
# E. cloacae M-20 = experiment: as above; conditions: E. cloacae M-20
# Experimental: as §3
# K. pneumoniae M150 = experiment: as above; conditions: Klebsiella pneumoniae, M150, K. pneumoniae M150, read-out: MIC
# Experimental: as §3
# E. coli M50 [6] = experiment: as above
# Experimental: as §3
# [7] = ESBL inhibitor 0 mcg (antibiotic alone)
# [8] = Table 5, with Tazobactam 10 mcg
# [9] = Table 6, with Tazobactam 10 mcg
smiles,measurement,setting,value
CCN1CCN(C(=O)N[C@@H](C(=O)N[C@@H]2C(=O)N3[C@@H]2SC(C)(C)[C@@H]3C(=O)O)c2ccccc2)C(=O)C1=O [Piperacillin],Zone of Inhibition,E. coli B-89 [1]; [7],Nil
same,Interpretation of zone as per CLSI recommendations,"E. coli B-89 [1]; Table 5, ESBL inhibitor 0 mcg",(R)
same,Interpretation of zone as per CLSI recommendations,E. coli B-89 [1]; [8],(R)
same,Interpretation of zone as per CLSI recommendations,"E. coli B-89 [1]; Table 6, ESBL inhibitor 0 mcg",(R)
same,Interpretation of zone as per CLSI recommendations,E. coli B-89 [1]; [9],(R)
same,Zone of Inhibition,E. coli B-89 [1]; with Tazobactam 10 mcg,15 mm
same,Zone of Inhibition,E. coli M-138; [7],Nil
same,Interpretation of zone as per CLSI recommendations,"E. coli M-138; Table 5, ESBL inhibitor 0 mcg",(R)
same,Interpretation of zone as per CLSI recommendations,E. coli M-138; [8],(R)
same,Interpretation of zone as per CLSI recommendations,"E. coli M-138; Table 6, ESBL inhibitor 0 mcg",(R)
same,Interpretation of zone as per CLSI recommendations,E. coli M-138; [9],(R)
same,Zone of Inhibition,E. coli M-138; with Tazobactam 10 mcg,15.5 mm
same,Zone of Inhibition,E. coli B-123; [7],Nil
same,Interpretation of zone as per CLSI recommendations,"E. coli B-123; Table 5, ESBL inhibitor 0 mcg",(R)
same,Interpretation of zone as per CLSI recommendations,E. coli B-123; [8],(R)
same,Interpretation of zone as per CLSI recommendations,"E. coli B-123; Table 6, ESBL inhibitor 0 mcg",(R)
same,Interpretation of zone as per CLSI recommendations,E. coli B-123; [9],(R)
same,Zone of Inhibition,E. coli B-123; with Tazobactam 10 mcg,13.5 mm
same,Zone of Inhibition,E. coli S-112; [7],Nil
same,Interpretation of zone as per CLSI recommendations,"E. coli S-112; Table 5, ESBL inhibitor 0 mcg",(R)
same,Interpretation of zone as per CLSI recommendations,E. coli S-112; [8],(R)
same,Interpretation of zone as per CLSI recommendations,"E. coli S-112; Table 6, ESBL inhibitor 0 mcg",(R)
same,Interpretation of zone as per CLSI recommendations,E. coli S-112; [9],(R)
same,Zone of Inhibition,E. coli S-112; with Tazobactam 10 mcg,14 mm
same,Zone of Inhibition,E. coli 7MP [2]; [7],Nil
same,Interpretation of zone as per CLSI recommendations,"E. coli 7MP [2]; Table 5, ESBL inhibitor 0 mcg",(R)
same,Interpretation of zone as per CLSI recommendations,E. coli 7MP [2]; [8],(R)
same,Interpretation of zone as per CLSI recommendations,"E. coli 7MP [2]; Table 6, ESBL inhibitor 0 mcg",(R)
same,Interpretation of zone as per CLSI recommendations,E. coli 7MP [2]; [9],(R)
same,Zone of Inhibition,E. coli 7MP [2]; with Tazobactam 10 mcg,13.5 mm
same,Zone of Inhibition,E. coli M50 [3]; [7],Nil
same,Interpretation of zone as per CLSI recommendations,"E. coli M50 [3]; Table 5, ESBL inhibitor 0 mcg",(R)
same,Interpretation of zone as per CLSI recommendations,E. coli M50 [3]; [8],(R)
same,Interpretation of zone as per CLSI recommendations,"E. coli M50 [3]; Table 6, ESBL inhibitor 0 mcg",(R)
same,Interpretation of zone as per CLSI recommendations,E. coli M50 [3]; [9],(R)
same,Zone of Inhibition,E. coli M50 [3]; with Tazobactam 10 mcg,17 mm
same,MIC,E. coli B-89 [4]; with Tazobactam 4 mcg,>64 mg/L
same,MIC,E. coli B-89 [4]; with Tazobactam 8 mcg,>64 mg/L
same,MIC,"E. coli B-89 [4]; Escherichia coli, B89, 20 h, Tazobactam 0 mcg (antibiotic alone), read-out: MIC",> 128 mg/L
same,MIC,E. coli 7MP [5]; with Tazobactam 4 mcg,>64 mg/L
same,MIC,E. coli 7MP [5]; with Tazobactam 8 mcg,>64 mg/L
same,MIC,"E. coli 7MP [5]; Escherichia coli, 7MP, 20 h, Tazobactam 0 mcg (antibiotic alone), read-out: MIC",> 128 mg/L
same,MIC,E. cloacae M-20; with Tazobactam 4 mcg,>64 mg/L
same,MIC,E. cloacae M-20; with Tazobactam 8 mcg,>64 mg/L
same,MIC,"E. cloacae M-20; Enterobacter cloacae, M20, 20 h, Tazobactam 0 mcg (antibiotic alone), read-out: MIC",> 128 mg/L
same,MIC,K. pneumoniae M150; Tazobactam 0 mcg (antibiotic alone),> 128 mg/L
same,MIC,K. pneumoniae M150; with Tazobactam 4 mcg,> 64 mg/L
same,MIC,K. pneumoniae M150; with Tazobactam 8 mcg,> 64 mg/L
same,MIC,"E. coli M50 [6]; Escherichia coli, 20 h, Tazobactam 0 mcg (antibiotic alone), read-out: MIC",> 128 mg/L
same,MIC,E. coli M50 [6]; with Tazobactam 4 mcg,>64 mg/L
same,MIC,E. coli M50 [6]; with Tazobactam 8 mcg,>64 mg/L
